These results are taken from PubChem BioAssay (NCI).

Among the test systems are SK-MEL-2 melanoma; CCRF-CEM leukemia; UACC-257 melanoma; MALME-3M melanoma; OVCAR-4 ovarian; EKVX NSCLC; NCI-H460 lung; SW-620 colon; A498 renal; M14 melanoma.
Assay in all cases: NCI tumour cell line growth inhibition, 48 h

Where “and” joins values, the source holds several entries; their conditions need not be identical. Equal values may be shown once.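 Dose response: 5 concentrations. Exposure: 48 h. Format: 96-well plates. Endpoint: linear interpolation; highest concentration if not reached. GI50 = concentration required for 50% inhibition of growth. TGI: total growth inhibition.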

As to `Cc1cccc2c(=O)c3c(sc12)c(NCCCN)nc1ccccc13`, the GI50 in the assay with SK-MEL-2 melanoma is 1850 nM; in the assay with CCRF-CEM leukemia it was 1320 nM; with UACC-257 melanoma, 1.76 µM; with MALME-3M melanoma it was 1610 nM; in the assay on OVCAR-4 ovarian, 1580 nM; in the assay with EKVX NSCLC it was 1580 nM. Further, the GI50 with NCI-H460 lung was 0.825 µM; in the assay with SW-620 colon, 1190 nM; in the assay with A498 renal it was 1.88 µM; in the assay on M14 melanoma, 1580 nM. The TGI with SK-MEL-2 melanoma stood at 3.65 µM; in the assay with CCRF-CEM leukemia, 3.13 µM; in the assay on UACC-257 melanoma, 3.46 µM; with MALME-3M melanoma it was 3.09 µM; in the assay with OVCAR-4 ovarian, 3.25 µM; in the assay with EKVX NSCLC it was 3.14 µM. For the same compound, the TGI in the assay on NCI-H460 lung amounted to 2.25 µM; in the assay on SW-620 colon, 2.66 µM; in the assay on A498 renal, 5.64 µM; with M14 melanoma, 3.13 µM.
With `COc1ccc(NC(=O)c2ccc(C(F)(F)F)nc2Nc2ccc(Cl)cc2C)cc1Cl`, the GI50 with SK-MEL-2 melanoma was 7330 nM; with CCRF-CEM leukemia it was 3840 nM; in the assay on UACC-257 melanoma, 10.8 µM; in the assay on MALME-3M melanoma, 15700 nM; in the assay on OVCAR-4 ovarian, 3180 nM; in the assay with EKVX NSCLC it was 3470 nM. The GI50 is 2.9 µM in the assay with NCI-H460 lung, 4090 nM with SW-620 colon, 5.02 µM in the assay on A498 renal and 7140 nM in the assay with M14 melanoma. In addition, the TGI is 21 µM with SK-MEL-2 melanoma; 17.4 µM in the assay on CCRF-CEM leukemia; 24 µM with UACC-257 melanoma; 40.1 µM with MALME-3M melanoma; 17.5 µM in the assay on OVCAR-4 ovarian; 16.5 µM with EKVX NSCLC. For the same compound, the TGI in the assay on NCI-H460 lung is 12.1 µM; in the assay on SW-620 colon, 14.7 µM; in the assay with A498 renal, 17.5 µM; in the assay with M14 melanoma, 22.3 µM.
As to `Oc1cccc2ccc(SSc3ccc4cccc(O)c4n3)nc12`, the TGI with SK-MEL-2 melanoma was 39.9 µM; in the assay with CCRF-CEM leukemia, > 100 µM; in the assay on UACC-257 melanoma, 43.2 µM; with MALME-3M melanoma, 30 µM; in the assay with OVCAR-4 ovarian it was 34.2 µM; in the assay on EKVX NSCLC, > 100 µM. In addition, the TGI in the assay on NCI-H460 lung amounted to 42.6 µM; in the assay with SW-620 colon, 96.4 µM; in the assay on A498 renal, 77.4 µM; in the assay with M14 melanoma, 33.3 µM.
For the compound `CN1C(c2ccccc2)CC(=NO)CC1c1ccccc1` (centres undefined), the TGI in the assay on SK-MEL-2 melanoma is > 100 µM; with CCRF-CEM leukemia it was > 100 µM; in the assay with UACC-257 melanoma it was > 100 µM and 79.9 µM; in the assay on MALME-3M melanoma, > 100 µM; in the assay on OVCAR-4 ovarian, > 100 µM; in the assay with EKVX NSCLC, > 100 µM. Moreover, the TGI in the assay with NCI-H460 lung, in the assay on SW-620 colon, in the assay with A498 renal and with M14 melanoma was > 100 µM in each case. Further, the GI50 in the assay on CCRF-CEM leukemia was 29200 nM; in the assay with UACC-257 melanoma, 26.8 µM; with NCI-H460 lung, 41.2 µM; with SW-620 colon it was 43000 nM.
On to `C=C[C@@H]1CCC/C=C/[C@@H]2C[C@H](O)C[C@H]2[C@H](O)/C=C/C(=O)O1`, for which the GI50 was 832 nM in the assay on SK-MEL-2 melanoma; 2420 nM in the assay on CCRF-CEM leukemia; 0.317 µM in the assay on UACC-257 melanoma; 274 nM in the assay with MALME-3M melanoma; 407 nM with OVCAR-4 ovarian; 543 nM with EKVX NSCLC. The GI50 in the assay on NCI-H460 lung was 3.76 µM; with SW-620 colon, 361 nM; in the assay on A498 renal it was 0.261 µM; in the assay on M14 melanoma, 387 nM. The TGI in the assay with SK-MEL-2 melanoma is 8.53 µM; with CCRF-CEM leukemia, > 100 µM; in the assay with UACC-257 melanoma, > 100 µM; in the assay with MALME-3M melanoma, 1.06 µM; in the assay on OVCAR-4 ovarian, > 94.6 µM; in the assay on EKVX NSCLC, > 100 µM. The TGI with NCI-H460 lung was > 100 µM; in the assay with SW-620 colon it was 1.57 µM; in the assay on A498 renal, 0.763 µM; with M14 melanoma, > 28.9 µM.
`CCCCCCCCCCCCCCCCCC1=NC(C)(C)CN1C(C)(C)CO`: the GI50 in the assay on SK-MEL-2 melanoma is 1830 nM; with CCRF-CEM leukemia it was 1390 nM; with UACC-257 melanoma, 1.78 µM; in the assay on MALME-3M melanoma, 1940 nM; with OVCAR-4 ovarian it was 2050 nM; with EKVX NSCLC it was 2210 nM. Further, the GI50 in the assay on NCI-H460 lung was 1.31 µM; in the assay with SW-620 colon, 1480 nM; with A498 renal, 11.2 µM; in the assay on M14 melanoma it was 1460 nM. Moreover, the TGI with SK-MEL-2 melanoma worked out at 3.51 µM; in the assay with CCRF-CEM leukemia, 4.88 µM; in the assay with UACC-257 melanoma it was 3.5 µM; with MALME-3M melanoma it was 4.22 µM; with OVCAR-4 ovarian, 4.92 µM; in the assay on EKVX NSCLC, 14 µM. The TGI in the assay with NCI-H460 lung is 2.8 µM; in the assay with SW-620 colon, 2.9 µM; with A498 renal it was 31.2 µM; in the assay on M14 melanoma, 2.88 µM.
As to `Cc1ccc(NC(=O)CCc2nnc3s/c(=C\C=C\c4ccccc4)c(=O)n23)cc1`, the TGI is > 91.9 µM in the assay with SK-MEL-2 melanoma; 74.3 µM in the assay on CCRF-CEM leukemia; > 100 µM in the assay on UACC-257 melanoma; > 100 µM with MALME-3M melanoma; > 56.2 µM with OVCAR-4 ovarian; > 100 µM with EKVX NSCLC. Further, the TGI with NCI-H460 lung, with SW-620 colon, in the assay with A498 renal and in the assay with M14 melanoma was > 100 µM each time.
Regarding `O=C(Nc1ccc(Cl)cc1)c1cc(NCc2cc(O)ccc2O)ccc1O`, the GI50 in the assay on SK-MEL-2 melanoma is 12200 nM; in the assay with CCRF-CEM leukemia, 605 nM; in the assay with UACC-257 melanoma, 15.7 µM; in the assay on MALME-3M melanoma, 4340 nM; in the assay on OVCAR-4 ovarian it was 2900 nM; with EKVX NSCLC it was 5500 nM. The GI50 in the assay with NCI-H460 lung was 13.3 µM; in the assay with SW-620 colon, 4140 nM; in the assay on A498 renal it was 17.1 µM; in the assay with M14 melanoma it was 10500 nM. Besides, the TGI is 27.3 µM in the assay with SK-MEL-2 melanoma; 6.79 µM with CCRF-CEM leukemia; 30.3 µM in the assay with UACC-257 melanoma; 16.8 µM with MALME-3M melanoma; > 100 µM in the assay on OVCAR-4 ovarian; 23.7 µM with EKVX NSCLC. In addition, the TGI is 33.2 µM with NCI-H460 lung, 22.8 µM with SW-620 colon, 47.1 µM with A498 renal and 27.1 µM in the assay with M14 melanoma.
